Results: US4087461A, “Anti-androgenic steroids” (The Johns Hopkins University, priority 1977, dated 1978)

Experiments:
[1] = biological target: Δ^5 -3-ketosteroid isomerase (Comamonas testosteroni, UniProt P00947); assay: inhibition of isomerase by allenic ketones, pseudo first order conditions; format: biochemical, Pseudomonas testosteroni; conditions: for half life for loss of enzyme activity / isomerisation of the allenic ketone under assay conditions: allenic ketone 200 μM, 1 mM phosphate buffer, pH = 7; for isomerisation of the allenic ketone under assay conditions: isomerase
Δ^5 -3-ketosteroid isomerase, sequence (P00947 whole entry, stated change not applied): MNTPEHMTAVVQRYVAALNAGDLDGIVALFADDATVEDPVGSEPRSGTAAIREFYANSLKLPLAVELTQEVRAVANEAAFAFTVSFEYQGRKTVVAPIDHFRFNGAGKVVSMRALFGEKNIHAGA
From the text: As noted above, the acetylenic compounds of the invention, e.g. estryne and pregnyne, are converted into the corresponding conjugated allenic ketones which then react irreversibly with the enzyme. These allenic ketones are also novel and constitute an important embodiment of the invention. The allenic ketones derived from estryne are 6β(H)-5,10-secoestra-4,5-diene-3,10,17-trione and 6α(H)-5,10-secoestra-4,5-diene-3,10,17-trione. These allenic ketones have been tested as inhibitors of isomerase and have been found effective in this regard.

[2] = tested on: ventral prostate and dorsal lateral prostate; assay: effects of 6β(H)-allenic ketone on intact male Sprague-Dawley rats: body and prostate weights; format: in vivo; conditions: 0.6mg in propylene glycol (0.2ml) daily for 7 days, i.p.
Method: Effects of 6β(H)-5,10-Seco-19-norestra-4,5-diene-3,10,17-trione on intact male Sprague-Dawley rats
The compound (0.6mg) dissolved in propylene glycol (0.2ml) was administered daily for 7 days by the intraperitoneal route. The experimental group and control group each comprised 5 animals; and weghts of animals as well the wet tissue weights of ventral prostate and dorsal lateral prostate are averaged for each group.

immature uterus = assay: study of estrogenic activity (uterine weight of immature mice); conditions: same dosage schedule as estryne
Method: The animals were housed in a temperature controlled room under a constant lighting schedule and maintained on a diet of Charles River Rat Formula and water ad libitum. The diet of the hypophy-sectomized animals was supplemented with organges.
On the fourth day the uteri were removed and weighed.
Thus, immature female mice received estryne at doses up to a maximum of 100 μg total dose over three days, and the wet weight of the uteri were determined.

[3] = tested on: endogenous androgen biosynthesis; assay: study in intact male rats: weights of sex accessory tissue and other organs; format: in vivo, male Sprague-Dawley rats
Method: Studies with intact male Sprague-Dawley rats (300g body weight) are illustrated for compounds (1) and (2).
Similarly, compound (2), […] rats at a dosage of 20mg per kilo for 7 days produced 20% reduction in weight of the ventral prostate and 28% reduction of the dorsal lateral prostate.
The following data illustrates the inhibiting effect of estryne and pregnyne on Δ^5 -3-ketosteroid isomerase (EC 5.3.3.1) as evidenced by a depression of the wet weight of the sex accessory tissue in the mature male rat treated with the estryne and pregnyne.
A. Male rats were used to assess the effect of estryne on endogenous androgen biosynthesis at varying doses (1-20 mg/kg body weight). […] On the eighth day the animals were sacrificed and the ventral prostate, dorsal lateral prostate, seminal vesicles, testes, kidneys, and adrenals were removed and weighed. Samples of each tissue were preserved in 10% buffered formalin for histological examination.
B. Male rats were treated with 19-norpregnyne by a regimen exactly as described for the estryne.

[4] = listed as 6β(H)-5,10-secoestra-4,5-diene-2,10,17-trione

## C[C@]12CC[C@@H]3C(=O)CCC(=O)C=C=CC[C@H]3[C@@H]1CCC2=O [6α(H)-5,10-secoestra-4,5-diene-3,10,17-trione]
[1]
  half life for loss of enzyme activity: 11 min
  isomerisation of the allenic ketone under assay conditions: partially converted to the β-isomer

## C[C@]12CC[C@@H]3C(=O)CCC(=O)C=C=CC[C@H]3[C@@H]1CCC2=O [6β(H)-5,10-secoestra-4,5-diene-3,10,17-trione]
[1]; [4]
  half life for loss of enzyme activity: 9 min
  isomerisation of the allenic ketone under assay conditions: partially converted to the 6α isomer
[1]; in words
  inhibition of isomerase: effective
[2]; control 299 mg
  Wt. of Dorsal Lateral Prostate: 235 mg
[2]; control 574 mg
  Wt. of Ventral Prostate: 488 mg
[2]; control 388 g
  Wt. of Animals: 382 g

## C[C@]12CC[C@@H]3c4ccc(O)cc4CC[C@H]3[C@@H]1CC[C@@H]2O [17β-estradiol]
Immature uterus
  dose giving maximum stimulation (uterine weight): about 8 μg
Immature uterus; "as low as"
  lowest dose giving a positive response (uterine weight): 0.67 µg

## C[C@]12CC[C@@H]3C(=O)CCC(=O)CC#CC[C@H]3[C@@H]1CCC2=O [Compound 5, 5,10-secoestr-5-yne-3,10,17-trione]
[3]; 13mg per kilo per day, s.c. in sesame oil, 7 days
  reduction in weight of the ventral prostate: 30%
[3]; 13mg/Kg (so in the source) in propylene glycol (0.2ml) per day for 7 days, i.p., control 421 mg
  Average Weight of Ventral Prostate: 302 mg
[3]; 13mg/Kg in sesame oil (0.2ml) per day for 7 days, s.c., control 238 mg
  Average Weight of Ventral Prostate: 167 mg
